Publication PMC12328218 (Nature, 2025)
pEC50: −log10 of the molar value. Like-named read-outs stand apart in the source and are kept apart here.

How the values were obtained:
Format in all cases: cell-based, Mycobacterium tuberculosis
[1] = system: JNJ-6640-treated M. tuberculosis
[2] = system: M. tuberculosis CRISPRi purF knockdown strains
[3] = system: M. tuberculosis H37Rv CRISPRi PurF low knockdown strain; experiment: microbe, parasite or virus in culture

Structure (SMILES): O=c1[nH]cnc2nc[nH]c12 [Hypoxanthine]
- effect of nucleobase addition on JNJ-6640-treated M. tuberculosis [1]: rescue
- rescue of JNJ-6640 activity [1]: rescues JNJ-6640 activity
- concentration partially rescuing inhibition of de novo purine biosynthesis [2]: exceeding 0.1 mM

Structure (SMILES): Nc1nc2nc[nH]c2c(=O)[nH]1 [Guanine]
- effect of nucleobase addition on JNJ-6640-treated M. tuberculosis [1]: no substantial effect

Structure (SMILES): COc1nc2ccc(Br)cc2cc1[C@@H](c1ccccc1)[C@@](O)(CCN(C)C)c1cccc2ccccc12 [Bedaquiline]
- pEC50 [3]: 7.36
- change in susceptibility following purF transcript knockdown [3]: no change
- pEC50 ([3]; Mycobacterium tuberculosis, H37RV): 7.21

Structure (SMILES): O=c1[nH]c(=O)c2nc[nH]c2[nH]1 [Xanthine]
- effect of nucleobase addition on JNJ-6640-treated M. tuberculosis [1]: no substantial effect

Structure (SMILES): Nc1ncnc2[nH]cnc12 [Adenine]
- effect of nucleobase addition on JNJ-6640-treated M. tuberculosis [1]: no substantial effect
- effect on rescue of purF knockdown [2]: limited effect
